Values after ≈ are worked out from the molar mass of the structure shown. Where two headings read alike, the source gives them in different places.
How the values were obtained:
[1] = Precipitation of 2-(2-hydroxyphenyl)benzenesulfinic acid from acidified HPBS solution; supernatant concentration by HPLC and redissolution; format: physicochemical
Experimental: The pH of a concentrated (>50 mM) HPBS solution was adjusted to 1.2 at ambient temperature with concentrated sulfuric acid. An amorphous white precipitate formed rapidly and the supernatant HPBS concentration, as determined by HPLC, dropped to the range of 5-8 μM.

[2] = Solubility of 2-(2-hydroxyphenyl)benzenesulfinic acid and DBTSi in liquid hydrocarbons; format: physicochemical
Excerpt: Solubility of 2-(2-hydroxyphenyl)benzenesulfinic acid and DBTSi in liquid hydrocarbons
The solubilities of 2-(2-hydroxyphenyl)benzenesulfinic acid and DBTSi in liquid hydrocarbons such as gas-oil or vacuum-gas-oil in an important parameter in process design as such refinery streams represent ultimate disposal sites for HPBS.

[3] = Titration of HPBS with hydrochloric acid or sulfuric acid (acid requirements, pKa, precipitation); format: physicochemical
Experimental: Acid requirements for the precipitation of 2-(2-hydroxyphenyl)benzenesulfinic acid were determined via titration with hydrochloric acid or sulfuric acid for solutions prepared from synthetic HPBS or HPBS derived from the biocatalytic oxidation of DBT. The titrations were conducted using standard methods.
FIG. 2 presents titration curves from 3 experiments. In experiment 1, a 110 mM solution of HPBS at pH 13 was treated with aqueous HCl. The HPBS phenolic group was titrated first, with a pKa of about 10.5. Precipitation of solid 2-(2-hydroxyphenyl)benzenesulfinic acid began at about pH 2, as the sulfinate group was protonated.
In experiment 2, a 110 mM HPBS solution equilibrated with a middle distillate (or diesel fuel) at 30° C. and pH 6.6 was titrated with HCl. The middle distillate was added to determine if the presence of middle distillate components have any effect on the protonation of HPBS.
In experiment 3, a 75 mM solution of HPBS prepared via the biocatalytic oxidation of DBT was titrated with sulfuric acid.

[4] = comparison value for benzenesulfinic acid; cited from earlier work

With O=S(O)c1ccccc1-c1ccccc1O [2-(2-hydroxyphenyl)benzenesulfinic acid] as the compound, how does the “solubility of precipitate in organic solvents, such as toluene” value ([1]; organic solvents, such as toluene) read?
The value was “only sparingly soluble”.

What about the “dissolution of precipitate in water” value ([1]; water at neutral pH) of the same compound?
Its value is “dissolved rapidly”.

And the “solubility in TMD” value ([2]; ambient temperature, TMD, x-ray fluorescence detection)?
Its value is “below the limits of detection”.

What about the solubility in hexadecane ([2]; ambient temperature, hexadecane, x-ray fluorescence detection) of the same compound?
Its solubility in hexadecane is “below the limits of detection”.

What about the solubility in toluene ([2]; ambient temperature, toluene, x-ray fluorescence detection) of the same compound?
The solubility in toluene was “below the limits of detection”.

And the solubility in gas-oil ([2]; gas-oil, 50° C.)?
The solubility in gas-oil was “no detectable solubility”.

And the “solubility in middle distillate” value ([2]; middle distillate, 50° C.)?
The value was “no detectable solubility”.

What about the “pH at which precipitation of solid began” value ([3]; 110 mM HPBS titrated with aqueous HCl) of the same compound?
Its value is roughly 2.

Which solubility in gas-oil [2] does the source give for O=S1Oc2ccccc2-c2ccccc21 (centres unmarked) [DBTSi, dibenzothiophene sultine] here?
Its solubility in gas-oil is “ca. 1.4%”.

And the solubility in hexadecane [2]?
Its solubility in hexadecane is 0.33 % by weight.

What about the “solubility in liquid hydrocarbons, in words” value [2] of the same compound?
The value was “substantially more soluble in liquid hydrocarbons”.

And the “solubility in middle distillate” value [2]?
The value was “ca. 1%”.

And the “solubility in vacuum gas oil” value [2]?
The value was 4.3%.

What about the “temperature dependence of solubility in the hydrocarbon” value [2] of the same compound?
Its value is “increased with increasing temperature”.

Which solubility ([1]; water, pH 1.2, ambient temperature, concentrated (>50 mM) HPBS, sulfuric acid, HPLC, read-out: supernatant HPBS concentration after precipitation) does the source give for O=S(O)c1ccccc1-c1ccccc1O [HPBS, 2-(2'-hydroxyphenyl)benzenesulfinate] here?
Its solubility is 5 to 8 µM (≈ 1.17 to 1.87 µg/mL).

And the pKa ([3]; 110 mM HPBS at pH 13 titrated with aqueous HCl, read-out: pKa of phenolic group)?
Its pKa is roughly 10.5.

For O=S(O)c1ccccc1 [benzenesulfinic acid], which pKa [4] is on record?
Its pKa is 1.2.
